One series relates to Alternaria solani. Nature of the series: Alternaria solani/tomato/Preventive (Action against Alternaria on Tomato). The class given is in vivo. Conditions: preventive spray, tomato plants cv. Roter Gnom, inoculated two days after application, assessed after 4 days, untreated controls infected over 80%, read-out: inhibit fungal infestation. The protocol:
Alternaria solani/tomato/Preventive (Action against Alternaria on Tomato) 4 weeks old tomato plants cv. Roter Gnom are treated with the formulated test compound in a spray chamber. Two days after application tomato plants are inoculated by spraying a spore suspension on the test plants. After an incubation period of 4 days at 22° C./18° C. and 95% r. h. in a greenhouse the disease incidence is assessed.

The subject of another series is Botrytis cinerea. In words: Botrytis cinerea/tomato/preventive (Action against Botrytis on Tomato). Particulars: preventive spray, tomato plants cv. Roter Gnom, inoculated two days after application, assessed after 3 days, untreated controls infected over 80%, read-out: inhibit fungal infestation. The format is in vivo. The protocol:
Botrytis cinerea/tomato/preventive (Action against Botrytis on Tomato) 4 weeks old tomato plants cv. Roter Gnom are treated with the formulated test compound in a spray chamber. Two days after application tomato plants are inoculated by spraying a spore suspension on the test plants. After an incubation period of 3 days at 20° C. and 95% r. h. in a greenhouse the disease incidence is assessed.

A further series has as its system Puccinia recondita. In words: Puccinia recondita/wheat/preventive (Action against Brown Rust on Wheat). The class given is in vivo. Conditions: preventive spray, wheat plants cv. Arina, inoculated one day after application, assessed 11 days after inoculation, untreated controls infected over 80%, read-out: inhibits fungal infestation. The protocol: Puccinia recondita/wheat/preventive (Action against Brown Rust on Wheat) 1 week old wheat plants cv. Arina are treated with the formulated test compound in a spray chamber. One day after application wheat plants are inoculated by spraying a spore suspension (1×105 uredospores/ml) on the test plants. After an incubation period of 1 day at 20° C. and 95% r. h. plants are kept for 10 days 20° C./18° C. (day/night) and 60% r.h. in a greenhouse. The disease incidence is assessed 11 days after inoculation.

Series [1] has as its system Magnaporthe grisea (Pyricularia oryzae). In words: whole plant or invertebrate. The class given is in vivo. Conditions: read-out: inhibit fungal infestation.
Series [2] concerns Pyrenophora teres (Helminthosporium teres). In words: Pyrenophora teres (Helminthosporium teres)/barley/preventive (Action against Net Blotch on Barley). The format is in vivo. Particulars: preventive spray, barley plants cv. Regina, inoculated two days after application, assessed after 4 days, untreated controls infected over 80%, read-out: inhibit fungal infestation. The protocol:
Pyrenophora teres (Helminthosporium teres)/barley/preventive (Action against Net Blotch on Barley) 1-week-old barley plants cv. Regina are treated with the formulated test compound in a spray chamber. Two days after application barley plants are inoculated by spraying a spore suspension (2.6×10^4 conidia/ml) on the test plants. After an incubation period of 4 days at 20° C. and 95% r. h. the disease incidence is assessed.

A further series has as its system Septoria tritici. In words: Sentoria tritici/wheat/Preventive (Action against Septoria Leaf Spot on Wheat). Conditions: Zymoseptoria tritici, preventive spray, wheat plants cv. Riband, inoculated one day after application, assessed 16-18 days after inoculation, untreated controls infected over 80%, read-out: inhibits fungal infestation. The format is in vivo. As to the method:
Sentoria tritici/wheat/Preventive (Action against Septoria Leaf Spot on Wheat) 2 weeks old wheat plants cv. Riband are treated with the formulated test compound in a spray chamber. One day after application wheat plants are inoculated by spraying a spore suspension (10^6 conidia/ml) on the test plants. After an incubation period of 1 day at 22° C./21° C. and 95% r. h. plants are kept at 22° C./21° C. and 70% r.h. in a greenhouse. The disease incidence is assessed 16-18 days after inoculation.

In a further series the test system is Uncinula necator. In words: Uncinula necator/grape/preventive (Action against Powdery Mildew on Grape). The format is in vivo. Particulars: Erysiphe necator, preventive spray, grape seedlings cv. Gutedel, inoculated one day after application, assessed after 7 days, untreated controls infected over 80%, read-out: inhibit fungal infestation. As to the method: Uncinula necator/grape/preventive (Action against Powdery Mildew on Grape) 5 weeks old grape seedlings cv. Gutedel are treated with the formulated test compound in a spray chamber. One day after application grape plants are inoculated by shaking plants infected with grape powdery mildew above the test plants. After an incubation period of 7 days at 24° C./22° C. and 70% r. h. under a light regime of 14/10 h (light/dark) the disease incidence is assessed.

A word on the melting point: it is the temperature of the solid-liquid transition.

Molecules are shown by their SMILES.

`Fc1ccc(-c2c(Cl)nnc(Cl)c2-c2c(F)cc(F)cc2F)cc1` [I.j. 198, 3,6-dichloro-4-(4-fluoro-phenyl)-5-(2,4,6-trifluoro-phenyl)-pyridazine] showed a melting point of 143 to 145 °C. Moreover, the inhibition at 200 ppm in the series with Alternaria solani was ≥ 80%. In addition, in the series on Botrytis cinerea, the inhibition at 200 ppm is ≥ 80%. Besides, the inhibition at 200 ppm in the series on Puccinia recondita is ≥ 80%. In series [1], the inhibition at 200 ppm was ≥ 80%. Also, in series [2], the inhibition at 200 ppm was ≥ 80%. In the series with Septoria tritici, the inhibition at 200 ppm was ≥ 80%. Moreover, the inhibition at 200 ppm in the series on Uncinula necator was ≥ 80%.
In the case of `Fc1cc(F)c(-c2c(Cl)nnc(Cl)c2-c2ccc(Cl)cc2)c(F)c1` [I.k. 198, 3,6-dichloro-4-(4-chloro-phenyl)-5-(2,4,6-trifluoro-phenyl)-pyridazine], the inhibition at 200 ppm (in the series with Botrytis cinerea; in the series with Puccinia recondita; in series [1]; in series [2]; in the series with Septoria tritici; with Uncinula necator) was ≥ 80% throughout.
As to `COc1nnc(Cl)c(-c2c(F)cc(F)cc2F)c1-c1ccc(Br)cc1` [I.l. 199, 4-(4-bromophenyl)-6-chloro-3-methoxy-5-(2,4,6-trifluorophenyl)-pyridazine], the melting point fell in the range of 113 to 119 °C. Also, the inhibition at 200 ppm in the series on Alternaria solani is ≥ 80%. The inhibition at 200 ppm in the series on Botrytis cinerea was ≥ 80%. Besides, in the series with Puccinia recondita, the inhibition at 200 ppm is ≥ 80%. Besides, the inhibition at 200 ppm in series [1] was ≥ 80%. In series [2], the inhibition at 200 ppm was ≥ 80%. In addition, the inhibition at 200 ppm with Septoria tritici is ≥ 80%. Besides, the inhibition at 200 ppm with Uncinula necator is ≥ 80%.

These data come from patent US20100022526A1, “PYRIDAZINE DERIVATIVES, PROCESSES FOR THEIR PREPARATION AND THEIR USE AS FUNGICIDES” (SYNGENTA CROP PROTECTION, INC., priority 2007, published 2010).
